Measurements from the NIST ThermoML archive (doi:10.1021/je700714m).

Legend:
[1] = xn = mol fraction of the nth substance listed; details: for mass density / speed of sound / viscosity: 100 kPa, Liquid
[2] = refractive index (Na D-line) (dimensionless); xn = mol fraction of the nth substance listed; details: 100 kPa, Liquid

COc1ccc(C=O)cc1 [4-methoxybenzaldehyde] + Clc1ccccc1
Details | mass density, [1] [kg/m3] | refractive index, [2] | speed of sound, [1] [m/s] | surface tension liquid-gas, [1] [mN/m] | viscosity, [1] [mPa·s]
303.15 K, x1 = 0.144 | 1105.1 | 1.5589 | 1339 | 43.12 | 0.8478
303.15 K, x1 = 0.2517 | 1107 | 1.5587 | 1383 | 50.12 | 1.023
303.15 K, x1 = 0.3354 | 1109.1 | 1.5586 | 1418 | 56 | 1.168
303.15 K, x1 = 0.4308 | 1111.2 | 1.5585 | 1459 | 62.5 | 1.334
303.15 K, x1 = 0.5457 | 1113.2 | 1.5583 | 1505 | 70.14 | 1.566
303.15 K, x1 = 0.6271 | 1115.3 | 1.5581 | 1537 | 75.82 | 1.771
303.15 K, x1 = 0.7371 | 1118 | 1.5578 | 1580 | 84.11 | 2.086
303.15 K, x1 = 0.8079 | 1122 | 1.5576 | 1607 | 87.59 | 2.353
303.15 K, x1 = 0.9439 | 1124 | 1.5572 | 1662 | 96.09 | 2.948
303.15 K, x1 = 1 | 1125.5 | 1.5571 | 1684 | 99.08 | 3.275
313.15 K, x1 = 0.144 | 1085.1 | 1.5508 | 820 | 41.6 | 0.7705
313.15 K, x1 = 0.2517 | 1089.3 | 1.5507 | 924 | 49.11 | 0.9236
313.15 K, x1 = 0.3354 | 1092.1 | 1.5506 | 1004 | 55.33 | 1.047
313.15 K, x1 = 0.4308 | – | 1.5504 | 1097 | 62.12 | 1.178
313.15 K, x1 = 0.5457 | 1100.5 | 1.5502 | 1207 | 71.23 | 1.357
313.15 K, x1 = 0.6271 | 1103.5 | 1.55 | 1283 | 78.22 | 1.497
313.15 K, x1 = 0.7371 | 1107.2 | 1.5497 | 1385 | 83.11 | 1.762
313.15 K, x1 = 0.8079 | 1110.2 | 1.5494 | 1452 | 86.41 | 1.986
313.15 K, x1 = 0.9439 | 1116.3 | 1.549 | 1577 | 94.66 | 2.596
313.15 K, x1 = 1 | 1119.1 | 1.5488 | 1631 | 96.11 | 2.97
323.15 K, x1 = 0.144 | 1073.5 | 1.548 | 738 | 40.52 | 0.6646
323.15 K, x1 = 0.2517 | 1078.6 | 1.5479 | 758 | 47.99 | 0.8222
323.15 K, x1 = 0.3354 | 1082.5 | 1.5478 | 850 | 53.34 | 0.9386
323.15 K, x1 = 0.4308 | 1086.3 | 1.5477 | 955 | 60.11 | 1.059
323.15 K, x1 = 0.5457 | 1091.6 | 1.5475 | 1082 | 68.77 | 1.192
323.15 K, x1 = 0.6271 | 1095 | 1.5475 | 1170 | 75.22 | 1.287
323.15 K, x1 = 0.7371 | 1100 | 1.5474 | 1290 | 82.89 | 1.474
323.15 K, x1 = 0.8079 | 1103 | 1.547 | 1365 | 85.22 | 1.635
323.15 K, x1 = 0.9439 | 1110.1 | 1.5466 | 1511 | 93.44 | 2.122
323.15 K, x1 = 1 | 1114.1 | 1.5463 | 1571 | 94.1 | 2.442
